Assay results from patent publication US20130137865A1 (TAISHO PHARMACEUTICAL CO., LTD., priority 2010, published 2013).

target: T1, rat mGlu2 receptor (Rattus norvegicus, UniProt P31421); assay: [35S]GTPγS binding test (1), membranes of CHO cells stably expressing rat mGlu2; type: biochemical; conditions: inhibition of glutamic acid (20 μM)-stimulated specific [35S]GTPγS binding
T1 construct: expressed in transfected cells; host or cells: CHO cells
Experimental: (Preparation of Crude Membrane Fraction of CHO Cells Stably Expressing the Rat Metabotropic Glutamate Receptor (mGlu2))
CHO cells stably expressing the rat mGlu2 receptor were cultured in a 10% dialyzed fetal bovine serum-containing Dulbecco's Modified Eagle's Medium [1% proline, 50 units/mL penicillin, 50 μg/mL streptomycin, and 2 mM L-glutamine (to be added when used)] at 37° C. in 5% CO2. Confluent cells were washed with PBS(−) twice, and were then harvested with a cell scraper. Then, the cells were centrifuged at 4° C. at 1000 rpm for 5 minutes to collect. The obtained precipitate was suspended in a 20 mM HEPES buffer (pH 7.4), and then homogenized with a Teflon® homogenizer. The resultant was centrifuged at 4° C. at 48,000×g for 20 minutes to obtain a precipitate again. The obtained precipitate was washed twice by centrifugation, and was then homogenized with the above-mentioned buffer, so as to obtain a crude membrane fraction. The obtained crude membrane fraction was preserved at −80° C.
The frozen membrane fraction as prepared above was thawed when used, and it was then diluted with a binding test buffer (final concentration: 20 mM HEPES, 100 mM NaCl, 10 mM MgCl2, 8.4 μM GDP, 10 μg/mL saponin, and 0.1% BSA). The compound of the Example was added to a membrane fraction (10 μg protein/assay), and the obtained mixture was then incubated at 30° C. for 20 minutes. Thereafter, glutamic acid (final concentration: 20 μM) and [^35S]GTPγS (final concentration: 0.15 nM) were added to the reaction mixture, and then incubated at 30° C. for 1 hour. After completion of the incubation, the reaction mixture was subjected to filtration over a Whatman GF/C filter that had previously been immersed in a 20 mM HEPES buffer (pH 7.4), and the filter was then washed three times with 300 μL of ice-cold 20 mM HEPES buffer (pH 7.4). A scintillation cocktail was added to the resulting filter, and membrane-bound radioactivity was then measured with a liquid scintillation counter.
The amount of [^35S]GTPγS bound in the case of carrying out the above described reaction in the absence of glutamic acid was defined as non-specific binding. The difference between such non-specific bound and the amount of [^35S]GTPγS bound in the presence of glutamic acid was defined as specific binding. Using non-linear analysis, a concentration-inhibition curve was produced. The concentration of the compound of each Example that caused 50% inhibition (IC50 value) of specific binding was determined from each concentration-inhibition curve.

T1 sequence (P31421 19-872): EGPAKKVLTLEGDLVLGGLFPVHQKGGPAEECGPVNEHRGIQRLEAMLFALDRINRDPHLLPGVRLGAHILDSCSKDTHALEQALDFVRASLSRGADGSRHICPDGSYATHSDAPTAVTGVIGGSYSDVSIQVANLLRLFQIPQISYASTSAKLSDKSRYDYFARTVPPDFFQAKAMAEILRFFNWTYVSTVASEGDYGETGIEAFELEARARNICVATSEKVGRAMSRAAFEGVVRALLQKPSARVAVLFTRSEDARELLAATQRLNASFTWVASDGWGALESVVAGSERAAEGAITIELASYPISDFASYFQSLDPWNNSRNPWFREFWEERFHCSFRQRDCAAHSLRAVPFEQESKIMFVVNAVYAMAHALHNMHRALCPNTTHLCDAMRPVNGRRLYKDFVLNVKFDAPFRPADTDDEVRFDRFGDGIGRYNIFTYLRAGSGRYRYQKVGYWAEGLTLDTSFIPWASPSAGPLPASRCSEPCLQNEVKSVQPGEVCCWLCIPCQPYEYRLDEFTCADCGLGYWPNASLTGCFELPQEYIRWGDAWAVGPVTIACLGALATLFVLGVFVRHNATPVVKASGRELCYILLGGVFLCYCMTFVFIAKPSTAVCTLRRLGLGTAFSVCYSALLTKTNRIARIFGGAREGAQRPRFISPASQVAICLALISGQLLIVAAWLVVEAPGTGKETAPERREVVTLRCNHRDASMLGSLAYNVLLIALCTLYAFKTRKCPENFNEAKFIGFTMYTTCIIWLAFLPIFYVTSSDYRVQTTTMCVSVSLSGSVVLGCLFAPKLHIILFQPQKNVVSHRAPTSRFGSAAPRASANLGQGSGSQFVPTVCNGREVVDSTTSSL

IC50 [nM]	SMILES
9.06	NS(=O)(=O)c1cccc(-c2noc(-c3cnn(CF)c3CCc3ccc(C(F)(F)F)cc3)n2)c1 [Example 41, 3-{5-[1-(Fluoromethyl)-5-{2-[4-(trifluoromethyl)phenyl]ethyl}-1H-pyrazol-4-yl]-1,2,4-oxadiazol-3-yl}benzenesulfonamide]
44.7	Cn1ncc(-c2nc(-c3ccc(S(N)(=O)=O)cc3)no2)c1OCc1ccc(C(F)(F)F)cc1 [Example 56, 4-[5-(1-Methyl-5-{[4-(trifluoromethyl)benzyl]oxy}-1H-pyrazol-4-yl)-1,2,4-oxadiazol-3-yl]benzenesulfonamide]
27.5	Cn1ncc(-c2nc(-c3cccc(S(N)(=O)=O)c3)no2)c1-c1cnn(-c2ccc(Cl)cc2)c1 [Example 25, 3-{5-[1′-(4-Chlorophenyl)-2-methyl-1′H,2H-3,4′-bipyrazol-4-yl]-1,2,4-oxadiazol-3-yl}benzenesulfonamide]
4.29	COc1cccc(OCc2c(-c3nc(-c4cccc(S(N)(=O)=O)c4)no3)cnn2C)c1 [Example 66, 3-(5-{5-[(3-Methoxyphenoxy)methyl]-1-methyl-1H-pyrazol-4-yl}-1,2,4-oxadiazol-3-yl)benzenesulfonamide]
3.65	Cn1ncc(-c2noc(-c3ccc(S(N)(=O)=O)cc3)n2)c1CCc1ccc(C(F)(F)F)cc1 [Example 3, 4-[3-(1-Methyl-5-{2-[4-(trifluoromethyl)phenyl]ethyl}-1H-pyrazol-4-yl)-1,2,4-oxadiazol-5-yl]benzenesulfonamide]
17.6	Cn1ncc(-c2nc(-c3cccc(S(N)(=O)=O)c3)no2)c1C#Cc1ccc(C(F)(F)F)cn1 [Example 7, 3-[5-(1-Methyl-5-{[5-(trifluoromethyl)pyridin-2-yl]ethynyl}-1H-pyrazol-4-yl)-1,2,4-oxadiazol-3-yl]benzenesulfonamide]
6.9	Cn1ncc(-c2nc(-c3cccc(S(N)(=O)=O)c3)no2)c1COc1cccc(F)c1 [Example 68, 3-(5-{5-[(3-Fluorophenoxy)methyl]-1-methyl-1H-pyrazol-4-yl}-1,2,4-oxadiazol-3-yl)benzenesulfonamide]
1.29	Cn1ncc(-c2nc(-c3cccc(S(N)(=O)=O)c3)no2)c1COc1ccc(C(F)(F)F)cc1 [Example 37, 3-[5-(1-Methyl-5-{[4-(trifluoromethyl)phenoxy]methyl}-1H-pyrazol-4-yl)-1,2,4-oxadiazol-3-yl]benzenesulfonamide]
98.5	Cn1ncc(-c2nc(-c3cccc(S(N)(=O)=O)c3)no2)c1CCc1ccc(C(F)(F)F)cn1 [Example 8, 3-[5-(1-Methyl-5-{2-[5-(trifluoromethyl)pyridin-2-yl]ethyl}-1H-pyrazol-4-yl)-1,2,4-oxadiazol-3-yl]benzenesulfonamide]
12	CCn1ncc(-c2nc(-c3cccc(S(N)(=O)=O)c3)no2)c1CCc1ccc(C(F)(F)F)cc1 [Example 39, 3-[5-(1-Ethyl-5-{2-[4-(trifluoromethyl)phenyl]ethyl}-1H-pyrazol-4-yl)-1,2,4-oxadiazol-3-yl]benzenesulfonamide]
39.6	Cn1ncc(-c2nc(-c3ccc(S(=O)(=O)O)cc3)no2)c1CCc1ccc(C(F)(F)F)cc1 [Example 15, 4-[5-(1-Methyl-5-{2-[4-(trifluoromethyl)phenyl]ethyl}-1H-pyrazol-4-yl)-1,2,4-oxadiazol-3-yl]benzenesulfonic acid]
22	CN(C)CCNS(=O)(=O)c1ccc(-c2noc(-c3cnn(C)c3CCc3ccc(C(F)(F)F)cc3)n2)cc1 [Example 31, N-[2-(Dimethylamino)ethyl]-4-[5-(1-methyl-5-{2-[4-(trifluoromethyl)phenyl]ethyl}-1H-pyrazol-4-yl)-1,2,4-oxadiazol-3-yl]benzenesulfonamide]
58.5	Cn1ncc(-n2cc(-c3ccc(S(N)(=O)=O)cc3)cn2)c1CCc1ccc(C(F)(F)F)cc1 [Example 6, 4-(1′-Methyl-5′-{2-[4-(trifluoromethyl)phenyl]ethyl}-1′H-1,4′-bipyrazol-4-yl)benzenesulfonamide]
28.5	Cn1ncc(-c2nc(-c3cccc(S(N)(=O)=O)c3)no2)c1CNc1ccc(C(F)(F)F)cc1 [Example 9]
10.1	Cn1ncc(-c2nc(-c3cccc(S(N)(=O)=O)c3)co2)c1CCc1ccc(C(F)(F)F)cc1 [Example 10, 3-[2-(1-Methyl-5-{2-[4-(trifluoromethyl)phenyl]ethyl}-1H-pyrazol-4-yl)-1,3-oxazol-4-yl]benzenesulfonamide]
14.8	Cn1ncc(-c2nc(-c3cccc(S(N)(=O)=O)c3)no2)c1N1Cc2ccc(C(F)(F)F)cc2C1 [Example 21, 3-(5-{1-Methyl-5-[5-(trifluoromethyl)-1,3-dihydro-2H-isoindol-2-yl]-1H-pyrazol-4-yl}-1,2,4-oxadiazol-3-yl)benzenesulfonamide]
8.16	Cc1ccc(OCc2c(-c3nc(-c4cccc(S(N)(=O)=O)c4)no3)cnn2C)cc1 [Example 51, 3-(5-{1-Methyl-5-[(4-methylphenoxy)methyl]-1H-pyrazol-4-yl}-1,2,4-oxadiazol-3-yl)benzenesulfonamide]
